Measurements taken from patent US12172946B2, “Compound containing diphenylmethane structure and use thereof” (GUANGZHOU TROJAN PHARMATEC LTD., priority 2019, dated 2024).

Assay: solubility of the compound in common solvents
Format: physicochemical
Details: 25-30° C.; for solubility in DMF: N,N-dimethylformamide; for solubility in i-PrOAc: isopropyl acetate; for solubility in MTBE: methyl tert-butyl ether
Experimental: The solubility of the compound of the present invention in common solvents was investigated (25-30° C.), and the results are shown in Table 1. It can be seen from Table 1 that the compound of the present invention has good solubility in all of heptane, isopropyl acetate (i-PrOAc), methyl tert-butyl ether (MTBE) and N,N-dimethylformamide (DMF), and particularly, the solubility in N,N-dimethylformamide is much higher than Comparative Examples.

4,4′-di(2-(2-(3,4,5-tris(2,3-dihydrophytoxy)-benzamido)-ethoxy)-ethoxy)-benzhydrylamine [DPA-004]
solubility in DMSO: <1%
solubility in MeOH: <1%
solubility in DMF: >1%
solubility in Heptane: >50%
solubility in i-PrOAc: >100%
solubility in MTBE: >100%

4,4′-di((5-(3,4,5-tris(isononyloxy)-benzamido)-2-one-3-aza-hexyl)oxy)-benzhydrylamine [DPA-009]
solubility in DMSO: <1%
solubility in MeOH: <1%
solubility in DMF: >30%
solubility in Heptane: >10%
solubility in i-PrOAc: >25%
solubility in MTBE: >30%

4-(2-(2-(3,4,5-tri(octa/decy/dodecyloxy)-benzamido)-ethoxy)-ethoxy)-benzhydrylamine [DPA-024]
solubility in DMSO: <1%
solubility in MeOH: <1%
solubility in DMF: >30%
solubility in Heptane: >50%
solubility in i-PrOAc: >100%
solubility in MTBE: >100%

4-(2-(2-(3,4,5-tris(isomeric decyloxy)-benzamido)-ethoxy)-ethoxy)-benzhydrylamine [DPA-006]
solubility in DMSO: <1%
solubility in MeOH: <1%
solubility in DMF: >100%
solubility in Heptane: >100%
solubility in i-PrOAc: >100%
solubility in MTBE: >100%

CC(C)CCCCCOc1cc(C(=O)NCCOCCOc2ccc(C(N)c3ccc(OCCOCCNC(=O)c4cc(OCCCCCC(C)C)c(OCCCCCC(C)C)c(OCCCCCC(C)C)c4)cc3)cc2)cc(OCCCCCC(C)C)c1OCCCCCC(C)C [DPA-001, 4,4′-di(2-(2-(3,4,5-tris(isooctyloxy)-benzamido)-ethoxy)-ethoxy) benzhydrylamine]
solubility in DMSO: <1%
solubility in MeOH: <1%
solubility in DMF: >20%
solubility in Heptane: >25%
solubility in i-PrOAc: >30%
solubility in MTBE: >30%

CCCCCCCCCCCCCOc1cc(C(=O)NCCOCCOc2ccc(C(N)c3ccc(OCCOCCNC(=O)c4cc(OCCCCCCCCCCCCC)c(OCCCCCCCCCCCCC)c(OCCCCCCCCCCCCC)c4)cc3)cc2)cc(OCCCCCCCCCCCCC)c1OCCCCCCCCCCCCC [DPA-003, 4,4′-di(2-(2-(3,4,5-tris(isomeric tridecyloxy)-benzamido)-ethoxy)-ethoxy)-benzhydrylamine]
solubility in DMSO: <1%
solubility in MeOH: <1%
solubility in DMF: >20%
solubility in Heptane: >50%
solubility in i-PrOAc: >100%
solubility in MTBE: >100%

CCCCCCCCCCCCCOc1cc(C(=O)NCCOCCOc2ccc(C(N)c3ccccc3)cc2)cc(OCCCCCCCCCCCCC)c1OCCCCCCCCCCCCC (stereo not drawn) [DPA-007, 4-(2-(2-(3,4,5-tris(isomeric tridecyloxy)-benzamido)-ethoxy)-ethoxy)-benzhydrylamine]
solubility in DMSO: <1%
solubility in MeOH: <1%
solubility in DMF: >100%
solubility in Heptane: >100%
solubility in i-PrOAc: >100%
solubility in MTBE: >100%

CC(C)CCCCCCOc1cc(C(=O)NCCOCCOc2ccc(C(N)c3ccc(Cl)cc3)cc2)cc(OCCCCCCC(C)C)c1OCCCCCCC(C)C (stereo not drawn) [DPA-011, 4-(2-(2-(3,4,5-tris(isononyloxy)-benzamido)-ethoxy)-ethoxy)-4′-chloro-benzhydrylamine]
solubility in DMSO: <1%
solubility in MeOH: <1%
solubility in DMF: >150%
solubility in Heptane: >100%
solubility in i-PrOAc: >100%
solubility in MTBE: >50%

CCCCCCCCCCCCCOc1ccc(CC(=O)NCCOCCOc2ccc(C(N)c3ccccc3)cc2)cc1OCCCCCCCCCCCCC (stereo not drawn) [DPA-013, 4-(2-(2-(3,4-di(isomeric tridecyloxy)-phenylacetamido)-ethoxy)-ethoxy)-benzhydrylamine]
solubility in DMSO: <1%
solubility in MeOH: <1%
solubility in DMF: >50%
solubility in Heptane: >50%
solubility in i-PrOAc: >70%
solubility in MTBE: >50%

CC(C)CCCCCCCCCCCCCCC(=O)NCCCCC(NC(=O)CCCCCCCCCCCCCCC(C)C)C(=O)NCCOCCOc1ccc(C(N)c2ccccc2)cc1 (stereo not drawn) [DPA-014, 4-(2-(2-(2,6-diisostearamido-hexanamido)-ethoxy)-ethoxy)-benzhydrylamine]
solubility in DMSO: <10%
solubility in MeOH: <10%
solubility in DMF: >40%
solubility in Heptane: >30%
solubility in i-PrOAc: >50%
solubility in MTBE: >50%

CCCCCCCCCCCCCOc1cc(C(=O)NCCCC(=O)NCCOCCOc2ccc(C(N)c3ccccc3)cc2)cc(OCCCCCCCCCCCCC)c1OCCCCCCCCCCCCC (stereo not drawn) [DPA-015, 4-(2-(2-(4-(3,4,5-tri(isomeric tridecyloxy)-benzamido)-butyrylamido)-ethoxy)-ethoxy)-benzhydrylamine]
solubility in DMSO: <1%
solubility in MeOH: <1%
solubility in DMF: >100%
solubility in Heptane: >50%
solubility in i-PrOAc: >100%
solubility in MTBE: >100%

CCCCCCCCCCCCCOc1cc(C(=O)NCCCCC(NC(=O)c2cc(OCCCCCCCCCCCCC)c(OCCCCCCCCCCCCC)c(OCCCCCCCCCCCCC)c2)C(=O)NCCOCCOc2ccc(C(N)c3ccccc3)cc2)cc(OCCCCCCCCCCCCC)c1OCCCCCCCCCCCCC (stereo not drawn) [DPA-017]
solubility in DMSO: <5%
solubility in MeOH: <5%
solubility in DMF: >100%
solubility in Heptane: >100%
solubility in i-PrOAc: >100%
solubility in MTBE: >100%

CC(CCC(C(=O)NCCOCCOc1ccc(C(N)c2ccc(OCCOCCNC(=O)C(CCC(C)CC(C)(C)C)C(C)CC(C)(C)C)cc2)cc1)C(C)CC(C)(C)C)CC(C)(C)C (stereo not drawn) [DPA-018, 4,4′-di(2-(2-(isostearamido)-ethoxy)-ethoxy)-benzhydrylamine]
solubility in DMSO: <5%
solubility in MeOH: <10%
solubility in DMF: >100%
solubility in Heptane: >5%
solubility in i-PrOAc: >100%
solubility in MTBE: >100%

CC(CCC(C(=O)N(CCOCCOc1ccc(C(N)c2ccccc2)cc1)Cc1ccccc1)C(C)CC(C)(C)C)CC(C)(C)C (stereo not drawn) [DPA-019]
solubility in DMSO: <5%
solubility in MeOH: <10%
solubility in DMF: >50%
solubility in Heptane: >50%
solubility in i-PrOAc: >100%
solubility in MTBE: >100%
